Laboratory results as given in US12583851B2, “Heteroaryl-substituted pyrazine derivatives as pesticides” (Elanco Animal Health GmbH, priority 2019, dated 2026).

Legend:
Format in all cases: in vivo
[1] = system: fall armyworm larvae (Spodoptera frugiperda); assay: Spodoptera frugiperda spray test; details: 168 h, maize leaf sections, after 7 days
Summary of the method: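 Percent larval kill read at day 7, from 0% (no caterpillars dead) to 100% (all dead). Larvae were placed on dried Zea mays leaf discs previously sprayed with test preparations made from an acetone/DMF solution diluted in 1000 ppm emulsifier-containing water.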

[2] = system: adult engorged female ticks (Rhipicephalus microplus); assay: Rhipicephalus (Boophilus) microplus injection test; details: 168 h, 4 μg/animal, egg deposition after 7 days, read-out: efficacy (infertile eggs)
Method: Rhipicephalus (Boophilus) microplus—Injection Test
(§1) Solvent: dimethyl sulfoxide
To produce a suitable preparation of active compound, 10 mg of active compound are dissolved in 0.5 mL solvent, and the concentrate is diluted with solvent to the desired concentration.
Five adult engorged female ticks (Rhipicephalus microplus) are injected with 1 μL compound solution into the abdomen. The ticks are transferred into replica plates and incubated in a climate chamber.
After 7 days egg deposition of fertile eggs is monitored. Eggs where fertility is not visible are stored in a climate chamber till hatching after about 42 days. An efficacy of 100% means all eggs are infertile; 0% means all eggs are fertile.

[3] = system: adult unfed cat fleas (Ctenocephalides felis); assay: Ctenocephalides felis oral test; details: 48 h, 100 ppm in citrated cattle blood, after 2 days
Method: Ctenocephalides felis—Oral Test
as §1
To produce a suitable preparation of active compound, 10 mg of active compound are dissolved in 0.5 mL solvent, and the concentrate is diluted with citrated cattle blood to the desired concentration.
Approximately 20 adult unfed cat fleas (Ctenocephalides felis) are placed in a flea chamber whose top and bottom is covered with gauze. A chamber whose bottom is sealed with parafilm, is filled with the blood-compound solution and placed on top of the flea chamber, so that the fleas can suck the blood. The blood chamber is heated to 37° C. whereas the flea chamber is kept at room temperature.
After 2 days mortality in % is determined. 100% means all the fleas have been killed; 0% means none of the fleas have been killed.

[4] = system: Rhipicephalus (Boophilus) microplus larvae (strain Parkhurst, resistant against synthetic pyrethroids); assay: Rhipicephalus (Boophilus) microplus in-vitro contact test, larval cattle tick; details: after 48 hours, read-out: efficacy (larvae dead or moribund); for pest or weed control at 1 µg/cm2, 100 g/ha: 1 μg/cm^2 (=100 g/ha); for pest or weed control at 5 µg/cm2, 500 g/ha: 5 μg/cm^2 (=500 g/ha)
Summary of the method: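 Pyrethroid-resistant larvae (strain Parkhurst), 20–50 per tube, exposed by contact to a dried acetone film of compound (5 μg/cm² at 900 ppm) for 48 h at 27 °C and 85% humidity. Percent dead or moribund larvae scored from negative geotactic behaviour.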

[5] = system: larvae of the banded cucumber beetle (Diabrotica balteata); assay: Diabrotica balteata spray test; details: 168 h, after 7 days, read-out: efficacy (seedling growth); for pest or weed control at 6.4 µg/disc, 20 g/ha: 20 g/ha (=6.4 μg/well); for pest or weed control at 32 µg/disc, 100 g/ha: 100 g/ha (=32 μg/well)
Summary of the method: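 Efficacy was read 7 days after infesting each unit with 10–20 banded cucumber beetle larvae, as % of seedlings growing like untreated, uninfested controls. Before infestation, wheat seeds germinated 1 day on agar (5 per well) were sprayed with the active ingredient. The active was formulated in acetone/DMF and diluted in water containing emulsifier.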

[6] = system: adult brown dog ticks (Rhipicephalus sanguineus); assay: Rhipicephalus sanguineus in-vitro contact test, adult brown dog ticks; details: 48 h, 5 μg/cm^2 (=500 g/ha), after 48 hours, read-out: efficacy (ticks dead or moribund)
Method: Rhipicephalus sanguineus—In-Vitro Contact Tests with Adult Brown Dog Ticks
(§2) 9 mg compound is solved in 1 mL acetone and diluted with acetone to the desired concentration. 250 of the test solution is filled in 25 mL glass test tubes and homogeneously distributed on the inner walls by rotation and tilting on a shaking device (2 h at 30 rpm). With a compound concentration of 900 ppm, an inner surface of 44.7 cm^2 and a homogeneous distribution, a dose of 5 μg/cm^2 is achieved.
(§3) After the solvent has evaporated, each test tube is filled with 5-10 adult brown dog ticks (Rhipicephalus sanguineus), closed with a perforated lid and incubated in a lying position at room temperature and relative humidity. After 48 hours efficacy is determined. The ticks are patted on the ground of the tubes and are incubated on a heating plate at 45-50° C. for at most 5 minutes Immotile or uncoordinated moving ticks, which are not able to escape the heat by climbing upwards, are marked as dead or moribund.
An efficacy of 100% means all ticks are dead or moribund; 0% means no ticks are dead or moribund.

[7] = system: adult cat fleas (Ctenocephalides felis); assay: Ctenocephalides felis in-vitro contact test, adult cat flea; details: after 48 hours, read-out: efficacy (fleas dead or moribund); for pest or weed control at 1 µg/cm2, 100 g/ha: 1 μg/cm^2 (=100 g/ha); for pest or weed control at 5 µg/cm2, 500 g/ha: 5 μg/cm^2 (=500 g/ha)
Method: Ctenocephalides felis—In-Vitro Contact Tests Adult Cat Flea
as §2, with “1 ml” for “1 mL”, “250 μL” for “250”
as §3, with “cat fleas (Ctenocephalides felis),” for “brown dog ticks (Rhipicephalus sanguineus),”, “fleas” for “ticks”, “fleas,” for “ticks,”
An efficacy of 100% means all fleas are dead or moribund; 0% means no fleas are dead or moribund.

CC(NC(=O)c1cc(Cl)cc(C#N)c1)c1nccnc1-c1ccc(Cl)cn1 (stereo not drawn) [Example I-23]
mortality at 100 g/ha [1]: 100% | pest or weed control at 0.004 mg [2]: 100% | mortality at 100 ppm [3]: 100%

CC(NC(=O)c1cc(C(F)(F)F)cc(C(F)(F)F)c1)c1nccnc1-c1ncc(C(=O)N2C[C@@H](C)O[C@@H](C)C2)s1 (mixture of isomers) [Example I-66, (rac)-N-[1-(3-{5-[(cis)-2,6-Dimethylmorpholine-4-carbonyl]-1,3-thiazol-2-yl}pyrazin-2-yl)ethyl]-3,5-bis(trifluoromethyl)benzamide]
pest or weed control at 1 µg/cm2, 100 g/ha [4]: 100% | pest or weed control at 5 µg/cm2, 500 g/ha [4]: 100% | pest or weed control at 6.4 µg/disc, 20 g/ha [5]: 100% | pest or weed control at 32 µg/disc, 100 g/ha [5]: 100% | mortality at 100 g/ha [1]: 100% | pest or weed control at 5 µg/cm2, 500 g/ha [6]: 80% | pest or weed control at 0.004 mg [2]: 80% | pest or weed control at 1 µg/cm2, 100 g/ha [7]: 100% | pest or weed control at 5 µg/cm2, 500 g/ha [7]: 100%

CC(NC(=O)c1cc(C#N)cc(C(F)(F)F)c1)c1nccnc1-c1ccc(Cl)cn1 (stereo not drawn) [Example I-25]
pest or weed control at 6.4 µg/disc, 20 g/ha [5]: 100% | pest or weed control at 32 µg/disc, 100 g/ha [5]: 100% | mortality at 100 g/ha [1]: 100% | pest or weed control at 0.004 mg [2]: 80% | mortality at 100 ppm [3]: 90%

CC(NC(=O)c1cc(C(F)(F)F)cc(C(F)(F)F)c1)c1nccnc1-c1ncc(C(=O)N2CCCCC2)s1 (racemic) [Example I-64, (rac)-N-[1-{3-[5-(Piperidine-1-carbonyl)-1,3-thiazol-2-yl]pyrazin-2-yl}ethyl]-3,5-bis(trifluoromethyl)benzamide]
pest or weed control at 1 µg/cm2, 100 g/ha [4]: 100% | pest or weed control at 5 µg/cm2, 500 g/ha [4]: 100% | pest or weed control at 5 µg/cm2, 500 g/ha [6]: 100% | pest or weed control at 0.004 mg [2]: 100% | pest or weed control at 1 µg/cm2, 100 g/ha [7]: 100% | pest or weed control at 5 µg/cm2, 500 g/ha [7]: 100%

CC(NC(=O)c1cc(Cl)cc(OC(F)(F)F)c1)c1nccnc1-c1ccc(Cl)cn1 (stereo not drawn) [Example I-21]
pest or weed control at 6.4 µg/disc, 20 g/ha [5]: 100% | pest or weed control at 32 µg/disc, 100 g/ha [5]: 100% | mortality at 100 g/ha [1]: 100% | pest or weed control at 0.004 mg [2]: 80%

CC(NC(=O)c1cc(Br)cc(C#N)c1)c1nccnc1-c1ccccn1 (stereo not drawn) [Example I-16]
pest or weed control at 32 µg/disc, 100 g/ha [5]: 100% | pest or weed control at 5 µg/cm2, 500 g/ha [6]: 80% | mortality at 100 ppm [3]: 100%

CC(NC(=O)c1cc(C(F)(F)F)cc(C(F)(F)F)c1)c1nccnc1-c1ccccn1 (stereo not drawn) [Example I-13]
pest or weed control at 1 µg/cm2, 100 g/ha [4]: 100% | pest or weed control at 5 µg/cm2, 500 g/ha [4]: 100% | pest or weed control at 6.4 µg/disc, 20 g/ha [5]: 100% | pest or weed control at 32 µg/disc, 100 g/ha [5]: 80% | mortality at 100 g/ha [1]: 100% | pest or weed control at 0.004 mg [2]: 80% | mortality at 100 ppm [3]: 90%

CC(NC(=O)c1cc(Br)cc(OC(F)(F)F)c1)c1nccnc1-c1nccs1 (racemic) [Example I-53, (rac)-3-Bromo-N-{1-[3-(1,3-thiazol-2-yl)pyrazin-2-yl]ethyl}-5-(trifluoromethoxy)benzamide]
pest or weed control at 6.4 µg/disc, 20 g/ha [5]: 80% | pest or weed control at 32 µg/disc, 100 g/ha [5]: 100% | pest or weed control at 0.004 mg [2]: 80%

CC(NC(=O)c1cc(Cl)cc(S(C)(=O)=O)c1)c1nccnc1-n1cc(C#N)cn1 (racemic) [Example I-103, (rac)-3-Chloro-N-{1-[3-(4-cyano-1H-pyrazol-1-yl)pyrazin-2-yl]ethyl}-5-(methanesulfonyl)benzamide]
pest or weed control at 1 µg/cm2, 100 g/ha [4]: 90% | pest or weed control at 5 µg/cm2, 500 g/ha [4]: 90% | pest or weed control at 6.4 µg/disc, 20 g/ha [5]: 100% | pest or weed control at 32 µg/disc, 100 g/ha [5]: 100% | mortality at 100 g/ha [1]: 100% | pest or weed control at 5 µg/cm2, 500 g/ha [6]: 80% | pest or weed control at 5 µg/cm2, 500 g/ha [7]: 80%

CC(NC(=O)c1cc(C(F)(F)F)cc(C(F)(F)F)c1)c1nccnc1-c1nccs1 (racemic) [Example I-5, (rac)-N-(1-(3-(Thiazol-2-yl)pyrazin-2-yl)ethyl)-3,5-bis(trifluoromethyl)benzamide]
pest or weed control at 1 µg/cm2, 100 g/ha [4]: 100% | pest or weed control at 5 µg/cm2, 500 g/ha [4]: 100% | pest or weed control at 32 µg/disc, 100 g/ha [5]: 80% | pest or weed control at 0.004 mg [2]: 80% | mortality at 100 ppm [3]: 90%

CC(NC(=O)c1cc(C#N)cc(C(F)(F)F)c1)c1nccnc1-c1ccccn1 (stereo not drawn) [Example I-15]
pest or weed control at 1 µg/cm2, 100 g/ha [4]: 80% | pest or weed control at 5 µg/cm2, 500 g/ha [4]: 80% | pest or weed control at 32 µg/disc, 100 g/ha [5]: 100% | pest or weed control at 0.004 mg [2]: 80% | mortality at 100 ppm [3]: 100%

CC(NC(=O)c1cc(Cl)cc(OC(F)(F)F)c1)c1nccnc1-c1ccccn1 (stereo not drawn) [Example I-12]
pest or weed control at 6.4 µg/disc, 20 g/ha [5]: 100% | pest or weed control at 32 µg/disc, 100 g/ha [5]: 100% | mortality at 100 g/ha [1]: 83% | mortality at 100 ppm [3]: 100%

CC(NC(=O)c1cncc(C(C)(C)C)c1)c1nccnc1-c1ncccn1 (racemic) [Example I-11, (rac)-5-(tert-Butyl)-N-(1-(3-(pyrimidin-2-yl)pyrazin-2-yl)ethyl)nicotinamide]
pest or weed control at 5 µg/cm2, 500 g/ha [4]: 100% | mortality at 100 ppm [3]: 90%

CC(NC(=O)c1cc(Cl)cc(C(F)(F)F)c1)c1nccnc1-c1nccs1 (racemic) [Example I-3, (rac)-3-Chloro-N-(1-(3-(thiazol-2-yl)pyrazin-2-yl)ethyl)-5-(trifluoromethyl)benzamide]
pest or weed control at 6.4 µg/disc, 20 g/ha [5]: 80% | pest or weed control at 32 µg/disc, 100 g/ha [5]: 100% | pest or weed control at 0.004 mg [2]: 100% | mortality at 100 ppm [3]: 90%

CC(NC(=O)c1cc(Cl)cc(C(F)(F)F)c1)c1nccnc1-c1ccccn1 (racemic) [Example I-1, (rac)-3-Chloro-N-{1-[3-(pyridin-2-yl)pyrazin-2-yl]ethyl}-5-(trifluoromethyl)benzamide]
pest or weed control at 1 µg/cm2, 100 g/ha [4]: 100% | pest or weed control at 32 µg/disc, 100 g/ha [5]: 100% | mortality at 100 g/ha [1]: 100% | mortality at 100 ppm [3]: 90%

CC(NC(=O)c1cc(Cl)cc(Br)c1)c1nccnc1-c1ccccn1 (stereo not drawn) [Example I-14]
pest or weed control at 1 µg/cm2, 100 g/ha [4]: 90% | pest or weed control at 5 µg/cm2, 500 g/ha [4]: 80% | pest or weed control at 6.4 µg/disc, 20 g/ha [5]: 80% | pest or weed control at 32 µg/disc, 100 g/ha [5]: 80% | pest or weed control at 0.004 mg [2]: 80% | mortality at 100 ppm [3]: 100%

CC(NC(=O)c1cc(C#N)cc(C(F)(F)F)c1)c1nccnc1-c1nccs1 (racemic) [Example I-56, (rac)-3-Cyano-N-{1-[3-(1,3-thiazol-2-yl)pyrazin-2-yl]ethyl)-5-(trifluoromethyl)benzamide]
pest or weed control at 6.4 µg/disc, 20 g/ha [5]: 100% | pest or weed control at 32 µg/disc, 100 g/ha [5]: 100% | mortality at 100 g/ha [1]: 100% | pest or weed control at 0.004 mg [2]: 100%
